According to ChEMBL document CHEMBL1201862, “PubChem BioAssay data set” (2004):
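Growth conditions: 96-well plates. Treatment: test compound, 48 hours, 5 concentrations. Analysis: linear interpolation between bracketing concentrations; unreached endpoints set to highest concentration. GI50 is the concentration that inhibits growth by half.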 Active and inactive are the calls of the source. No stated cut-off is given here; in the data, active = GI50 up to about 1.1 µM and inactive = higher.

Key:
Test in all cases: NCI-60 cell line screen, 48 h
SNB-19 = test system: SNB-19
MDA-N = test system: MDA-N
M14 = test system: M14
A549 = test system: A549
HOP-92 = test system: HOP-92
OVCAR-5 = test system: OVCAR-5
Hs-578T = test system: Hs-578T
MDA-MB-435 = test system: MDA-MB-435
TK-10 = test system: TK-10
K562 = test system: K562
SK-MEL-5 = test system: SK-MEL-5
CAKI-1 = test system: CAKI-1
SK-MEL-28 = test system: SK-MEL-28
MOLT-4 = test system: MOLT-4
SF-539 = test system: SF-539
OVCAR-3 = test system: OVCAR-3
NCI/ADR-RES = test system: NCI/ADR-RES
T47D = test system: T47D
HCT-15 = test system: HCT-15
UO-31 = test system: UO-31

Row | Structure (SMILES) | GI50 (SNB-19) | GI50 (MDA-N) | GI50 (M14) | GI50 (A549) | GI50 (HOP-92) | GI50 (OVCAR-5) | GI50 (Hs-578T) | GI50 (MDA-MB-435) | GI50 (TK-10) | GI50 (K562) | GI50 (SK-MEL-5) | GI50 (CAKI-1) | GI50 (SK-MEL-28) | GI50 (MOLT-4) | GI50 (SF-539) | GI50 (OVCAR-3) | GI50 (NCI/ADR-RES) | GI50 (T47D) | GI50 (HCT-15) [µM] | GI50 (UO-31)
1 | CCOC(=O)C(CS)NC(=O)CCCCCCCC(=O)NC(CS)C(=O)OCC (stereo not given) | 37.4 µM (inactive) | > 100 µM (inactive) | > 100 µM (inactive) | > 100 µM (inactive) | > 100 µM (inactive) | > 100 µM (inactive) | > 100 µM (inactive) | > 100 µM (inactive) | > 100 µM (inactive) | > 100 µM (inactive) | > 100 µM (inactive) | > 100 µM (inactive) | > 100 µM (inactive) | 32.4 µM (inactive) | > 100 µM (inactive) | > 100 µM (inactive) | > 100 µM (inactive) | > 100 µM (inactive) | > 100 | > 100 µM (inactive)
2 | OC1(c2ccc(Cl)cc2)c2ccccc2C2=Nc3ccccc3CN21 (stereo not given) | 36.1 µM (inactive) | > 70 µM (inactive) | > 100 µM (inactive) | 12.7 µM (inactive) | > 60.3 µM (inactive) | > 75.2 µM (inactive) | 23 µM (inactive) | 79.3 µM (inactive) | > 95.5 µM (inactive) | > 100 µM (inactive) | > 46.1 µM (inactive) | 58.3 µM (inactive) | 29 µM (inactive) | 61.8 µM (inactive) | 39.6 µM (inactive) | 2.96 µM (inactive) | 25 µM (inactive) | 45.5 µM (inactive) | 30.8 | 34.4 µM (inactive)
3 | C/C(=N\Nc1nc2ccccc2[nH]1)c1cnccn1 | 2.72 µM (inactive) | 1.9 µM (inactive) | 0.614 µM (active) | 1.88 µM (inactive) | 0.385 µM (active) | 6.84 µM (inactive) | 19.8 µM (inactive) | 0.822 µM (active) | 4.09 µM (inactive) | 1.23 µM (inactive) | 0.881 µM (active) | 0.447 µM (active) | 0.506 µM (active) | 0.232 µM (active) | 0.713 µM (active) | 0.296 µM (active) | 0.64 µM (active) | 0.437 µM (active) | 0.313 | 0.548 µM (active)
4 | O=c1[nH]c(=O)n(C2COC(CO)C2O)cc1F (stereo not given) | > 100 µM (inactive) | 25.2 µM (inactive) | 50.6 µM (inactive) | 17.3 µM (inactive) | 50.8 µM (inactive) | > 100 µM (inactive) | > 100 µM (inactive) | 48.9 µM (inactive) | 68.1 µM (inactive) | 56.5 µM (inactive) | 21.4 µM (inactive) | > 100 µM (inactive) | 26.7 µM (inactive) | 39 µM (inactive) | 3.52 µM (inactive) | 15.5 µM (inactive) | 72.1 µM (inactive) | 50.6 µM (inactive) | 16.4 | 14.6 µM (inactive)
5 | OCCNC1c2cc(Cl)ccc2-c2c(Cl)cc(Cl)cc21 (stereo not given) | 39.4 µM (inactive) | 26.9 µM (inactive) | 38.1 µM (inactive) | 30 µM (inactive) | 20.3 µM (inactive) | 42.2 µM (inactive) | 33.1 µM (inactive) | 35.6 µM (inactive) | 39.7 µM (inactive) | 33 µM (inactive) | > 100 µM (inactive) | 30.3 µM (inactive) | 92.3 µM (inactive) | 22.1 µM (inactive) | 47.9 µM (inactive) | 29.8 µM (inactive) | 45.9 µM (inactive) | 36.1 µM (inactive) | 33.7 | 3.37 µM (inactive)
6 | O=C(/C=C(\N=P(c1ccccc1)(c1ccccc1)c1ccccc1)C(F)(F)C(F)(F)C(F)(F)C(F)(F)C(F)(F)C(F)(F)C(F)(F)F)c1ccccc1 | > 100 µM (inactive) | > 100 µM (inactive) | > 100 µM (inactive) | > 100 µM (inactive) | > 100 µM (inactive) | > 100 µM (inactive) | > 100 µM (inactive) | > 100 µM (inactive) | > 100 µM (inactive) | > 100 µM (inactive) | > 100 µM (inactive) | > 100 µM (inactive) | > 100 µM (inactive) | > 100 µM (inactive) | > 100 µM (inactive) | > 100 µM (inactive) | > 100 µM (inactive) | > 100 µM (inactive) | > 100 | > 100 µM (inactive)
7 | O=[N+]([O-])/C(C(Cl)=C(Cl)Cl)=C(\N1CCCCC1)n1nnc2ccccc21 | 20.9 µM (inactive) | 20.8 µM (inactive) | 17.3 µM (inactive) | 22.6 µM (inactive) | 19.3 µM (inactive) | 17.8 µM (inactive) | 32.9 µM (inactive) | 31.6 µM (inactive) | 18.2 µM (inactive) | 8.41 µM (inactive) | 17.5 µM (inactive) | 15.3 µM (inactive) | 22.3 µM (inactive) | 0.443 µM (active) | 17.3 µM (inactive) | 17.9 µM (inactive) | 29.6 µM (inactive) | 33.3 µM (inactive) | 17.8 | 18.2 µM (inactive)
8 | O=Nc1c(-c2c(O)[nH]c3ccccc23)[nH]c2ccccc12 [INDIRUBIN-3-MONOXIME] | 25.8 µM (inactive) | 4.58 µM (inactive) | 5.61 µM (inactive) | 3.8 µM (inactive) | 8.77 µM (inactive) | 7.26 µM (inactive) | 4.47 µM (inactive) | 3.79 µM (inactive) | 5.79 µM (inactive) | 2.67 µM (inactive) | 3.99 µM (inactive) | 0.64 µM (active) | 6.9 µM (inactive) | 4.15 µM (inactive) | 20 µM (inactive) | 3.88 µM (inactive) | 5.77 µM (inactive) | 4.3 µM (inactive) | 2.48 | 2.38 µM (inactive)
9 | Cc1cc(O)c2cc3c(O)c(O)ccc3cc2c1 | 0.615 µM (active) | 2.18 µM (inactive) | 2.86 µM (inactive) | 1.14 µM (inactive) | 2.61 µM (inactive) | 3.17 µM (inactive) | 0.465 µM (active) | 3.63 µM (inactive) | 3.78 µM (inactive) | 1.04 µM (active) | 0.243 µM (active) | 2.08 µM (inactive) | 9.51 µM (inactive) | 1.03 µM (active) | 0.822 µM (active) | 0.46 µM (active) | 0.438 µM (active) | 1.75 µM (inactive) | 1.2 | 0.7 µM (active)
10 | C[C@@H](c1ccccc1)C(CC#N)[C@H]1CCC[C@]1(O)C#Cc1ccc2c(c1)OCO2 (stereo not given in full) | 16.1 µM (inactive) | 16.7 µM (inactive) | 16.9 µM (inactive) | 16.3 µM (inactive) | 14 µM (inactive) | 16.6 µM (inactive) | 20.8 µM (inactive) | 16.6 µM (inactive) | 16 µM (inactive) | 18.1 µM (inactive) | 18.6 µM (inactive) | 15.8 µM (inactive) | 16.1 µM (inactive) | 8.02 µM (inactive) | 10.6 µM (inactive) | 15.6 µM (inactive) | 16 µM (inactive) | 15.7 µM (inactive) | 16 | 14.4 µM (inactive)
11 | Cc1nn2c(C(=O)N/N=C/c3ccc([N+](=O)[O-])cc3)c(C)nc2s1 | 45.9 µM (inactive) | > 100 µM (inactive) | > 100 µM (inactive) | > 100 µM (inactive) | > 100 µM (inactive) | > 100 µM (inactive) | > 100 µM (inactive) | > 100 µM (inactive) | 36.7 µM (inactive) | 94.2 µM (inactive) | > 100 µM (inactive) | > 100 µM (inactive) | > 100 µM (inactive) | 41 µM (inactive) | 31.4 µM (inactive) | > 100 µM (inactive) | > 100 µM (inactive) | > 100 µM (inactive) | > 100 | 34.4 µM (inactive)
12 | CCC(=O)NC(Nc1cccc(F)c1C)(C(F)(F)F)C(F)(F)F | > 100 µM (inactive) | > 100 µM (inactive) | > 100 µM (inactive) | > 100 µM (inactive) | > 100 µM (inactive) | > 100 µM (inactive) | 54.5 µM (inactive) | > 100 µM (inactive) | > 100 µM (inactive) | > 100 µM (inactive) | > 100 µM (inactive) | > 100 µM (inactive) | > 100 µM (inactive) | > 100 µM (inactive) | > 100 µM (inactive) | > 100 µM (inactive) | > 100 µM (inactive) | > 100 µM (inactive) | > 100 | 94.6 µM (inactive)
13 | CC1(O)C(=O)OC2CC([C@]3(O)CCC4[C@@H]5C[C@H]6O[C@]67[C@@H](O)C=CC(=O)[C@]7(C)C5CC[C@@]43C)C1(C)C2 (stereo not given in full) | 47.2 µM (inactive) | 12.3 µM (inactive) | 12.6 µM (inactive) | 38.7 µM (inactive) | 3.44 µM (inactive) | 23.8 µM (inactive) | 26.3 µM (inactive) | 15.7 µM (inactive) | 8.73 µM (inactive) | 3.6 µM (inactive) | 16.9 µM (inactive) | 11.8 µM (inactive) | 9.35 µM (inactive) | 2.89 µM (inactive) | 18.2 µM (inactive) | 15.8 µM (inactive) | > 50.9 µM (inactive) | 5.97 µM (inactive) | 17.9 | 22.9 µM (inactive)
14 | C[N+](C)(C)CC1Cc2ccccc2C1=O (stereo not given) | > 10 µM (inactive) | 3.72 µM (inactive) | 2.75 µM (inactive) | > 10 µM (inactive) | 3.91 µM (inactive) | > 10 µM (inactive) | > 10 µM (inactive) | > 6.87 µM (inactive) | > 8.36 µM (inactive) | 1.4 µM (inactive) | > 10 µM (inactive) | > 4.8 µM (inactive) | 5.58 µM (inactive) | 1.71 µM (inactive) | > 10 µM (inactive) | > 5.81 µM (inactive) | > 4.78 µM (inactive) | 2.51 µM (inactive) | 4.53 | > 10 µM (inactive)
